Reference: patent US10980828B2, “Method of using cyclodextrin” (L&F Research LLC, priority 2012, dated 2021)

What was measured:
human podocytes [1] = assay: Apoptosis analysis (Caspase-3 colorimetric assay) in podocytes exposed to patient sera; format: cell-based; conditions: DKD+ treated podocytes, 5 mM CD pretreatment 1 hour
Experimental: Human podocyte culture. Human podocytes were cultured and differentiated as previously described and serum starved in 0.2% FBS prior to experiments. When patient sera were utilized, starved cells were exposed to 4% patient sera for 24 hours. For insulin treatment experiments, 100 nmol insulin was added to the culture medium for 15 minutes after exposure to patient sera. […] Apoptosis analysis. Apoptosis was assessed using the Caspase-3/CPP32 Colorimetric Assay kit (Biovision) according to the manufacturer's description. Caspase 3 activity was normalized to cell number and expressed as fold change to controls.

human podocytes [2] = assay: Western blotting and luminex (insulin stimulated AKT phosphorylation, MyD88) in podocytes exposed to patient sera; format: cell-based; conditions: DKD+ treated podocytes, 5 mM CD pretreatment 1 hour
Experimental: Human podocyte culture. Human podocytes were cultured and differentiated as previously described and serum starved in 0.2% FBS prior to experiments. When patient sera were utilized, starved cells were exposed to 4% patient sera for 24 hours. For insulin treatment experiments, 100 nmol insulin was added to the culture medium for 15 minutes after exposure to patient sera. […] Western blotting and luminex. Cell lysate collection and Western blotting was performed as previously described. The following primary antibodies were used: rabbit-polyclonal-anti-MyD88 (Cell Signaling), rabbit-polyclonal-anti-phosphorylated ([…]) or anti-total-AKT (Cell Signaling), mouse-monoclonal-anti-rhoA (Santa Cruz), or mouse-monoclonal-anti-Gapdh (6C5, Calbiochem) antibody. Secondary Anti-mouse-IgG-HRP or and Anti-rabbit-IgG-HRP Conjugate (Promega) were used. Image acquisition was performed using the chemiluminescent imager SRX-101A (Konica Minolta medical imaging, USA) and band densitometry was analyzed using ImageJ software (NIH). Alternatively, phosphorylated/total AKT was quantified using luminex technology as previously reported.

BTBR mice = assay: Safety of chronic subcutaneous CD in BTBR mice (blood analysis at sacrifice); format: in vivo; conditions: at sacrifice, 4,000 mg/kg s.c. three times per week for 5 months
Experimental: (§1) BTBR ob/ob mice treatment and analysis. BTBR ob/ob mice were purchased from Jackson Laboratories. Mice were injected subcutaneously with 4,000 mg/kg CD or saline as reported previously, three times per week for 5 months. Urine was collected, and body weight and glycemia (OneTouch) were determined weekly. Six mice per group were analyzed. All animal procedures were approved by the Institutional Animal Care and Use Committee (IACUC). After isotonic saline perfusion, the right kidney was removed for cholesterol content determination and mRNA extraction. One left kidney pole was embedded in OCT, a second pole fixed in 4% PFA and paraffin-embedded for histological analysis. Blood samples were analyzed for CBC, lipid panel, AST, ALT, Alkaline Phosphatase, GGT, and BUN in the Comparative Laboratory Core Facility, University of Miami. Serum creatinine was determined by tandem mass spectrometry at the UAB-UCSD O'Brien Core Center, University of Alabama at Birmingham, using the methods previously described. The urine albumin content was measured by ELISA (Bethyl Laboratories). Urinary creatinine was assessed by an assay based on the Jaffe method (Stanbio). Values are expressed as μg albumin/mg creatinine. Fasting plasma insulin was determined by ELISA (Mercodia, SW). Intraperitoneal glucose tolerance tests (IPGTT) were performed 4 months after treatment; after 5-hr fasting, blood glucose was recorded at baseline and up to 180 minutes after a glucose bolus (1.5 g/kg). For insulin sensitivity, glycemia was monitored at baseline and up to 150 minutes after intraperitoneal injection of 4 mU/g of short acting insulin. Human islets from four different isolations were pretreated with 0.5 mM CD for one hour and perfused as described before to determine insulin release in response to glucose and KCl.
FIG. 3 is a table illustrating the safety of CD in 4-week old BTBR mice treated following subcutaneous administration of three weekly injections of hydroxypropyl-β-cyclodextrin (CD, 4,000 mg/kg body weight) for five months.

[3] = intravenous infusions; cited from earlier work
human podocytes [4] = assay: Human podocytes exposed to DKD+ patient sera: immunofluorescence staining (filipin, phospho-caveolin, F-actin, cell blebbing); format: cell-based
Experimental: We used a previously established cell-based assay in which differentiated human podocytes are exposed to 4% patient sera for 24 hours to identify new pathways and targets in DKD. […] Excessive cholesterol deposition has indeed been described in glomeruli of rodent models of T1D and T2D and may contribute to DKD development and progression.
Human podocyte culture. Human podocytes were cultured and differentiated as previously described and serum starved in 0.2% FBS prior to experiments. When patient sera were utilized, starved cells were exposed to 4% patient sera for 24 hours. For insulin treatment experiments, 100 nmol insulin was added to the culture medium for 15 minutes after exposure to patient sera.
Immunofluorescence staining. […] Fluorescence detection was performed using Alexa Fluor secondary antibodies (Invitrogen). For cholesterol determination, filipin (Sigma) staining was performed as described. F-actin was visualized by Rhodamine Phalloidin (Invitrogen). Two hundred consecutive cells per condition were studied. Slides were prepared with DAPI enriched mounting media (Vectashield) and analyzed by confocal microscopy.

human islets = assay: Human islet perifusion: glucose stimulated insulin release; format: cell-based; conditions: human islets from four preparations, pretreated with 0.5 mM CD for one hour, vs untreated
Experimental: as §1, with “Intraperitoneal glucose tolerance tests (IPGTT) were performed 4 months after treatment; after 5-hr fasting, blood glucose was recorded at baseline and up to 180 minutes after a glucose bolus (1.5 g/kg). For insulin sensitivity, glycemia was monitored at baseline and up to 150 minutes after intraperitoneal injection of 4 mU/g of short acting insulin. Human islets from four different isolations were pretreated with 0.5 mM CD for one hour and perfused as described before to determine insulin release in response to glucose and KCl.” left out

BTBR ob/ob mice [5] = assay: BTBR ob/ob mice treatment: body weight, glycemia, insulin, IPGTT, insulin sensitivity; format: in vivo
Experimental: as §1

ABCA1 [6] = assay: ABCA1 mRNA expression in kidney cortex of BTBR ob/ob mice; format: in vivo; conditions: BTBR ob/ob mice, 4,000 mg/kg s.c. three times per week, 5 months
Experimental: Quantitative Real Time PCR (QRT-PCR). Podocyte RNA was extracted using the RNAeasy Mini Kit (Qiagen). Reverse transcription was performed using the high-capacity cDNA reverse transcriptase kit (Applied Biosystems) according to the manufacturer's protocols. QRT-PCR was performed in the StepOnePlus real-time PCR system (Applied Biosystems) using the PerfeCTa® SYBR® Green FastMix (Quanta Biosciences). Relative gene expression was determined as 2^-ΔCt, with ΔCt being the difference between the cycle threshold (Ct) value of the target gene and Gapdh. For semi-quantitative expression analysis, PCR was performed and analyzed by gel electrophoresis. Amplification product intensities were determined using ImageJ software (NIH), values were normalized and expressed as fold changes in gene expression over GAPDH. The following primers were used: hABCA1-F, […]; hABCA1-R, […]; hLDL-R-F, […]; hLDL-R-R, […]; hHMG-CoA-R-F, […]; hHMG-CoA-R-R, […]; hGAPDH-F, […]; hGAPDH-R, Hs_ABCA1-SG QuantiTect-Primer-Assay (Qiagen); mAbca1-F, […]; mAbca1-R, […].
BTBR ob/ob mice treatment and analysis. […] Urine was collected, and body weight and glycemia (OneTouch) were determined weekly. Six mice per group were analyzed. […] Blood samples were analyzed for CBC, lipid panel, AST, ALT, Alkaline Phosphatase, GGT, and BUN in the Comparative Laboratory Core Facility, University of Miami. […]

BTBR ob/ob mice [7] = assay: BTBR ob/ob mice treatment: diabetic kidney disease readouts; format: in vivo
Experimental: as §1
Histology, assessment of mesangial expansion and glomerular surface area. Periodic acid-Shiff's (PAS) staining of 4 μm thick tissue sections was performed. Twenty glomeruli per section were analyzed for mesangial expansion by semiquantitative analysis (scale 0-4) performed by two blinded independent investigators. The glomerular surface was delineated in each encountered glomerulus and the mean surface area calculated as described.

ABCA1 [8] = assay: ABCA1 immunofluorescence staining in pancreata of BTBR mice; format: in vivo
Source text: IPGTT performed one week prior to sacrifice were improved in CD treated homozygous mice when compared to homozygous controls. As improvement was observed despite a similar insulin sensitivity test, we analyzed the effect of low dose CD on the function of four different preparations of human islet cells. […] To determine whether the beneficial effect of CD on islet cell function was associated with the modulation of ABCA1 expression in pancreatic islets, we performed immunofluorescence staining using a rabbit polyclonal ABCA1 antibody (gift from Dr. A. Mendez) and determined ABCA1 expression as mean fluorescence intensity per pancreata analyzed. […] As hemolytic anemia and liver toxicity have been described while using other cyclodextrin derivatives in rodents and humans, and because we administered high dose CD for a period of 5 months, we studied hemoglobin, aspartate aminotransferase (AST), alanine transaminase (ALT) and gamma-glutamyltransferase (GGT) at sacrifice.

human podocytes [9] = assay: Determination of cholesterol content in podocytes exposed to patient sera; format: cell-based; conditions: DKD+ treated podocytes, 5 mM CD pretreatment 1 hour
Experimental: Human podocyte culture. Human podocytes were cultured and differentiated as previously described and serum starved in 0.2% FBS prior to experiments. When patient sera were utilized, starved cells were exposed to 4% patient sera for 24 hours. For insulin treatment experiments, 100 nmol insulin was added to the culture medium for 15 minutes after exposure to patient sera. […] Determination of cholesterol content. Esterified cholesterol was determined as difference between total and free cholesterol using an enzymatic assay and normalized to cell protein content. The cellular content of lipid droplets was determined using Oil red O (ORO). Cells were fixed and permeabilized as described above, washed in PBS and in 60% isopropanol, followed by incubation in ORO (0.5% ORO in isopropanol, 1:3 diluted) for 15 min at room temperature and counterstaining with hematoxylin for 1 min. The fraction of ORO positive cells over two hundred consecutive cells was calculated by bright field microscopy.

[10] = podocytes pretreated 1 hour with 5 mM CD, exposed to 4% DKD+ sera 24 hours
[11] = BTBR ob/ob mice, 4,000 mg/kg s.c. three times per week, after four months of treatment
[12] = sera collected at sacrifice, BTBR ob/ob mice, 4,000 mg/kg s.c. three times per week
[13] = serum at sacrifice, 4,000 mg/kg s.c. three times per week, 5 months

## CC(O)COC[C@H]1O[C@@H]2O[C@H]3[C@H](O)[C@@H](O)[C@@H](O[C@H]4[C@H](O)[C@@H](O)[C@@H](O[C@H]5[C@H](O)[C@@H](O)[C@@H](O[C@H]6[C@H](O)[C@@H](O)[C@@H](O[C@H]7[C@H](O)[C@@H](O)[C@@H](O[C@H]8[C@H](O)[C@@H](O)[C@@H](O[C@H]1[C@H](O)[C@H]2O)O[C@@H]8COCC(C)O)O[C@@H]7COCC(C)O)O[C@@H]6COCC(C)O)O[C@@H]5COCC(C)O)O[C@@H]4COCC(C)O)O[C@@H]3COCC(C)O (stereo partly drawn) [CD, hydroxypropyl-β-cyclodextrin]
Human podocytes [1]
  DKD+ induced apoptosis (cleaved Caspase 3): prevented DKD+ induced apoptosis
Human podocytes [2]
  DKD+ induced MyD88 expression: prevented
Human podocytes [2]; 100 nmol insulin 15 minutes
  DKD+ induced insulin resistance (insulin stimulated AKT phosphorylation): prevented
BTBR mice
  alanine transaminase (ALT): No abnormalities
  aspartate aminotransferase (AST): No abnormalities
  gamma-glutamyltransferase (GGT): No abnormalities
  hemoglobin: No abnormalities
[3]
  crossing from the bloodstream into the brain: does not cross from the bloodstream into the brain
Human podocytes [4]; human podocytes exposed to sera of patients with diabetic kidney disease, CD
  cell blebbing: prevents
Human podocytes [4]; [10]
  localization of phosphorylated caveolin to focal adhesion sites: preserved the localization of phosphorylated caveolin to focal adhesion sites
  number of filipin-positive cells: reduced the number of filipin-positive cells
Human podocytes [4]; pretreated 1 hour with 5 mM CD or 1 μM simvastatin
  podocyte injury observed in vitro after exposure to patient sera: prevented podocyte injury
Human islets
  glucose stimulated insulin release: significant improvement in glucose stimulated insulin release
BTBR ob/ob mice [5]; [11]
  body weight: reduction of body weight
  random glycemia: improvement of random glycemia
BTBR ob/ob mice [5]; BTBR ob/ob mice, insulin 4 mU/g intraperitoneal
  sensitivity to a single dose of short acting insulin: did not affect the sensitivity
BTBR ob/ob mice [5]; CD treated homozygous mice vs homozygous controls, one week prior to sacrifice, glucose bolus 1.5 g/kg
  IPGTT (glucose tolerance): improved
BTBR ob/ob mice [5]; [12]
  fasting plasma glucose: significant improvement
  fasting plasma insulin: significant improvement
ABCA1 [6]
  ABCA1 mRNA expression in the kidney cortex: did not affect
BTBR ob/ob mice [7]; BTBR ob/ob mice, 4,000 mg/kg s.c. three times per week, 5 months
  total cholesterol in the kidney cortex: significant reduction of total cholesterol
BTBR ob/ob mice [7]; BTBR ob/ob mice, 4,000 mg/kg s.c. three times per week, at 3 months, vs untreated, p<0.001
  albumin/creatinine ratios in morning spot urine: significant down-regulation
BTBR ob/ob mice [7]; BTBR ob/ob mice, 4,000 mg/kg s.c. three times per week, at sacrifice (5 months)
  kidney weight: reduction of kidney weight
BTBR ob/ob mice [7]; BTBR ob/ob mice, 4,000 mg/kg s.c. three times per week, until sacrifice (5 months)
  albumin/creatinine ratios in morning spot urine: decrease persisted until sacrifice
BTBR ob/ob mice [7]; PAS stained kidney sections, five months of treatment
  glomerular surface area: without affecting the glomerular surface area
BTBR ob/ob mice [7]; PAS stained kidney sections, semiquantitative scale 0-4, five months of treatment
  mesangial expansion: reduction of mesangial expansion
BTBR ob/ob mice [7]; homozygous BTBR ob/ob mice, 4,000 mg/kg s.c. three times per week, up to 2 months after treatment initiation
  albumin excretion rates: no changes
BTBR ob/ob mice [7]; [13]
  Blood urea nitrogen (BUN): not significantly affected
  serum creatinine: not significantly affected
ABCA1 [8]; heterozygous BTBR ob/+ mice, p<0.01
  ABCA1 expression in pancreata (mean fluorescence intensity): significantly increased ABCA1 expression
ABCA1 [8]; homozygous BTBR ob/ob mice, p<0.001
  ABCA1 expression in pancreata (mean fluorescence intensity): significantly increased ABCA1 expression
Human podocytes [9]
  accumulation of esterified cholesterol: prevented the accumulation of total and esterified cholesterol
  accumulation of total cholesterol: prevented the accumulation of total and esterified cholesterol
